According to BindingDB's records for doi:10.1074/jbc.274.19.13370 (SynthÉLabo, 1999):
Values joined by “and” are separate entries in the source; they are usually repeats but may differ in a detail not shown here. Equal entries are not always repeated.

Biological target: Gamma-aminobutyric acid receptor subunit alpha-5 (Rattus norvegicus, UniProt P19969)
Sequence (P19969 whole entry): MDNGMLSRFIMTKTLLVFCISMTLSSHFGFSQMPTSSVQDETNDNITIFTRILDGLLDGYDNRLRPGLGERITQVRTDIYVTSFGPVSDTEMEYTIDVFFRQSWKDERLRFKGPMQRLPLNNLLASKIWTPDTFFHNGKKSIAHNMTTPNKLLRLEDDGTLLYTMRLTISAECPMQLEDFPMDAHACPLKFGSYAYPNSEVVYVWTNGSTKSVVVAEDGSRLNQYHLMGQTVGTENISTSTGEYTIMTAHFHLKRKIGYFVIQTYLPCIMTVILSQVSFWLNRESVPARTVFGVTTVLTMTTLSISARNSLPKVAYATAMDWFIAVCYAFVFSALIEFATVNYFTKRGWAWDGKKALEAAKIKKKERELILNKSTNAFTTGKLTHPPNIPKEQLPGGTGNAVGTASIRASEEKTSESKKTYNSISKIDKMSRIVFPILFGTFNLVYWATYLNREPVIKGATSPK

Cc1nnc2ccc(-c3cccc(C(F)(F)F)c3)nn12
Ki: 0.333 µM and 0.127 µM and 0.157 µM and 0.447 µM
